Data: patent US20070275935A1, “Estratriene Derivatives” (priority 2003, published 2007)

Experiments:
[1] = test system: HASM cells; assay: bFGF-induced HASM proliferation over 7 days on plastic or collagen-coated silastic, comparison with dexamethasone; type: cell-based, human; details: 1 μM, bFGF 300 pM
Experimental: We examined the effects of 4NO (1 μM) and the glucocorticoid dexamethasone (Dex, 100 nM) on the proliferation of HASM cells in response to bFGF (300 pM). Dexamethasone is a commonly used anti-inflammatory glucocorticoid. Cells were cultured on a standard plastic tissue culture plate. The test compounds were pre-incubated with HASM for 30 minutes before the addition of bFGF. The incubation continued for 7 days before cell enumeration (FIG. 5). Data are expressed as a percentage of the cell number in vehicle treated wells and are presented as the mean and standard error of the mean.
The response of HASM cells grown on a collagen extracellular matrix to the glucocorticoids and test compounds was also examined. Cells were cultured on a collagen-coated silastic base. HASM cells were pre-incubated with the test compounds for 30 minutes before the addition of bFGF (300 pM). The incubation continued for 7 days before cell enumeration (FIG. 6). Data are expressed as a percentage of the cell number in vehicle treated wells and are presented as the mean and standard error of the mean.

[2] = test system: cyclin D1; assay: Thrombin-mediated cyclin D1 protein expression in HASM (Western blotting); type: cell-based, human; details: 0.01 μM-1 μM pre-incubation; thrombin 0.3 U/ml, 8 h
Experimental: Human airway smooth muscle cells were cultured as described above in the proliferation experiments. Cells were serum-deprived for 24 h and stimulated with thrombin (0.3 U/ml) for 8h before harvest of protein for Western Blotting of cyclin D1.

COc1cc2c(cc1O)C(=NOCc1ccc([N+](=O)[O-])cc1)C[C@@H]1[C@@H]2CC[C@]2(C)[C@@H](O)CC[C@@H]12 [CP-DM-2-11-7, 2-methoxy-6-(4-nitrobenzyloxy)iminoestradiol]
effect on bFGF-induced HASM proliferation on collagen (FIG. 6) ([1]; collagen-coated silastic): retained its effectiveness as an anti-proliferative agent
effect on bFGF-induced HASM proliferation on plastic (FIG. 5) ([1]; plastic tissue culture plate): markedly reduced the increase in HASM cell number to levels below that of dexamethasone
cyclin D1 protein levels [2]: concentration-dependent reduction in the cyclin D1 protein levels
